The values below come from patent US9216999B2, “Substituted pyrrolo[2,3-h][1,6]naphthyridines and compositions thereof as JAK inhibitors” (priority 2011, dated 2015).

Structures are written as SMILES. Some results are limits rather than exact numbers.

Holding throughout (assay type): biochemical
Holding throughout (conditions): ATP 100 μM

The target in one assay is JAK3 (Homo sapiens (Human), UniProt P52333). Kind of assay: Enzyme assay (Assay Example^a 1), JAK3.
For a further assay, the target named is JAK1 (Homo sapiens (Human), UniProt P23458). The experiment in a line: Enzyme assay (Assay Example^a 1), JAK1.
Another assay deals with JAK2 (Homo sapiens (Human), UniProt O60674). Kind of assay: Enzyme assay (Assay Example^a 1), JAK2.
The next assay deals with Tyk2 (Homo sapiens (Human), UniProt P29597). Kind of assay: Enzyme assay (Assay Example^a 1), Tyk2.
Chain of Tyk2 (P29597 whole entry): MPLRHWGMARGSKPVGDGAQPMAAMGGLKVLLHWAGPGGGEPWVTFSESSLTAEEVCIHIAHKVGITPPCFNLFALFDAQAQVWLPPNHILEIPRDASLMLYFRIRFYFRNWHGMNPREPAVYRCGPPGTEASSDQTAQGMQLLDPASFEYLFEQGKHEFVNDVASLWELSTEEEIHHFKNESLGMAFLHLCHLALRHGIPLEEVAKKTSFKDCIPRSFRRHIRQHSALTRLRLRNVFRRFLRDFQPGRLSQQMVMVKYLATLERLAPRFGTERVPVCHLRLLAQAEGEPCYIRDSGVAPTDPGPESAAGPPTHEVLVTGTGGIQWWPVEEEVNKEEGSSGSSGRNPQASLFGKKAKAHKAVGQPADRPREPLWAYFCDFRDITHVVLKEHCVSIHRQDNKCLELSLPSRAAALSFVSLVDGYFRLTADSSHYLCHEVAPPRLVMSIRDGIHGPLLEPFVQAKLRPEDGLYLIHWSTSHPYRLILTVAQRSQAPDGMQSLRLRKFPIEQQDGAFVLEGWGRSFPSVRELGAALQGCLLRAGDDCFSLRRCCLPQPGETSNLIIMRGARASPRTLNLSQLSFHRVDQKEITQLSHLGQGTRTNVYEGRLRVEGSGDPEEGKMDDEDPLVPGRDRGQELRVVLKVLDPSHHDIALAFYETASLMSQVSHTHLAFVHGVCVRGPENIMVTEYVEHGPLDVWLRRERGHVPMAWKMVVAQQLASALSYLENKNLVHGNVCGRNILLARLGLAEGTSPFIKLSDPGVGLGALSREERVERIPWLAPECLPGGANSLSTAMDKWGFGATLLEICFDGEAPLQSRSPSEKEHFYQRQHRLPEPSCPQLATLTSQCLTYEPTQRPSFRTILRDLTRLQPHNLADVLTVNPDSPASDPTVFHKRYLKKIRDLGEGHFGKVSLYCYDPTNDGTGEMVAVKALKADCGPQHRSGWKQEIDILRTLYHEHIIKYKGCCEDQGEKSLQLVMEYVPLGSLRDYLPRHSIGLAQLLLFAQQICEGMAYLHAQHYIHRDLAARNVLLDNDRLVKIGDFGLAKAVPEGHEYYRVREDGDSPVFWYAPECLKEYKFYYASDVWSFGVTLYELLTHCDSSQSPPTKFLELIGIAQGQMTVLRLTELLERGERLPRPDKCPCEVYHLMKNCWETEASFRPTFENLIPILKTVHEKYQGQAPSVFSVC

Chain of JAK3 (P52333 whole entry): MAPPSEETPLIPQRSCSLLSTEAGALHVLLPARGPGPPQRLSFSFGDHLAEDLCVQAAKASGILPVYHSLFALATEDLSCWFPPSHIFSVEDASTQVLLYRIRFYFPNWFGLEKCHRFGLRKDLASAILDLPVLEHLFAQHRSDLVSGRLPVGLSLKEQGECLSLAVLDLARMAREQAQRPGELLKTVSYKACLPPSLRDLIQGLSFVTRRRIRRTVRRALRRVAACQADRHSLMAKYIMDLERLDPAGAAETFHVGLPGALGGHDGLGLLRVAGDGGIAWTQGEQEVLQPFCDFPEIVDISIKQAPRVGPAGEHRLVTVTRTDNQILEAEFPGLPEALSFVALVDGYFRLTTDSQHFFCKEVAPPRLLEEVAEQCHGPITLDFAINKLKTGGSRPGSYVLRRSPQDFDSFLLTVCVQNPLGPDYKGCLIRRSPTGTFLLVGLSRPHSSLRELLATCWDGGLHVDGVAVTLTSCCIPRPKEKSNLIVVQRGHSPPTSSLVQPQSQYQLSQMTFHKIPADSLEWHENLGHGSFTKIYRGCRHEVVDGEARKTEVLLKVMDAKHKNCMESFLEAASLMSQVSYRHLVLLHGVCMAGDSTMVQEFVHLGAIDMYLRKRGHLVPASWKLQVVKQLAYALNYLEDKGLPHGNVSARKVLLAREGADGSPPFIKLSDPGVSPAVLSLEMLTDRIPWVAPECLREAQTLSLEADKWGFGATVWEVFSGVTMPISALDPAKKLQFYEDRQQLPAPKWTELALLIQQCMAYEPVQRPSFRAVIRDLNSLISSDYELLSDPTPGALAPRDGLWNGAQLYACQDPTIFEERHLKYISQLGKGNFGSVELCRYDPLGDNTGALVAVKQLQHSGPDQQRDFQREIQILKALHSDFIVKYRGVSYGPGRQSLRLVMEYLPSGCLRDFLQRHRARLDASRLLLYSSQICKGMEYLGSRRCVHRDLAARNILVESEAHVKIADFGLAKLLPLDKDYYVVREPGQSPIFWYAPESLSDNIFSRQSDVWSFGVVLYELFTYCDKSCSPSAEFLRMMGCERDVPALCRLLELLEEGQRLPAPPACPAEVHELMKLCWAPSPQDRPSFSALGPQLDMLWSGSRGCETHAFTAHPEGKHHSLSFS

With `c1cc2c(ncn3nnc([C@H]4CC[C@H](CN5CCSC5)CC4)c23)[nH]1` [compound 254, 3-{[trans-4-(7H-pyrrolo[3,2-e][1,2,3]triazolo[1,5-c]pyrimidin-1-yl)cyclohexyl]methyl}thiazolidine], the IC50 against JAK3 turned out to be 0.53 µM; at JAK1 it was 0.0071 µM; against JAK2 it was 0.024 µM; at Tyk2, 0.16 µM.
Take `Fc1ccc(C2(NC[C@H]3CC[C@H](c4nnn5cnc6[nH]ccc6c45)CC3)CCC2)cc1` [compound 324, N-{[trans-4-(7H-pyrrolo[3,2-e][1,2,3]triazolo[1,5-c]pyrimidin-1-yl)cyclohexyl]methyl}-1-(4-fluorophenyl)cyclobutanamine]: the IC50 against JAK3 amounted to 0.66 µM; against JAK1 it was 0.0034 µM; at JAK2, 0.034 µM; on Tyk2, 0.75 µM.
Regarding `N#CCOc1ccc(CN2CCC(c3nnn4cnc5[nH]ccc5c34)CC2)cc1` [compound 213, 2-(4-{[4-(7H-pyrrolo[3,2-e][1,2,3]triazolo[1,5-c]pyrimidin-1-yl)piperidin-1-yl]methyl}phenoxy)acetonitrile], the IC50 was more than 1 µM against JAK3, 0.024 µM at JAK1, 0.19 µM against JAK2 and more than 1 µM at Tyk2.
For the molecule `O=C(NCC(F)(F)F)C1CN(C[C@H]2CC[C@H](c3nnn4cnc5[nH]ccc5c34)CC2)C1` [compound 426, 1-{[trans-4-(7H-Pyrrolo[3,2-e][1,2,3]triazolo[1,5-c]pyrimidin-1-yl)cyclohexyl]methyl}-N-(2,2,2-trifluoroethyl)azetidine-3-carboxamide], the concentration for half-maximal inhibition (IC50) on JAK3 stood at 0.87 µM; against JAK1, 0.011 µM; at JAK2 it was 0.062 µM; against Tyk2 it was 0.58 µM.
For `c1cc2c(ncn3nnc([C@H]4CC[C@H](NC5CC5)CC4)c23)[nH]1` [392b, trans-N-cyclopropyl-4-(7H-pyrrolo[3,2-e][1,2,3]triazolo[1,5-c]pyrimidin-1-yl)cyclohexanamine], the half-inhibitory concentration (IC50) came out at 0.61 µM against JAK3, 0.014 µM against JAK1, 0.08 µM against JAK2 and 0.33 µM against Tyk2.
As to `CC(C)(C)OC(=O)NCCN1CCC(c2nnn3cnc4[nH]ccc4c23)CC1` [compound 171, tert-butyl {2-[4-(7H-pyrrolo[3,2-e][1,2,3]triazolo[1,5-c]pyrimidin-1-yl)piperidin-1-yl]ethyl}carbamate], the IC50 at JAK3 (Table^a 154) was more than 1 µM; against JAK1 (Table^a 154), 0.1 µM; on JAK2 (Table^a 154) it was 0.94 µM; against Tyk2 (Table^a 154), more than 1 µM.
Consider `CC1(NC[C@H]2CC[C@H](c3nnn4cnc5[nH]ccc5c34)CC2)CC1` [compound 295, N-{[trans-4-(7H-pyrrolo[3,2-e][1,2,3]triazolo[1,5-c]pyrimidin-1-yl)cyclohexyl]methyl}-1-methylcyclopropanamine], for which the IC50 on JAK3 worked out at 0.84 µM; on JAK1, 0.0069 µM; against JAK2 it was 0.064 µM; at Tyk2 it was 0.33 µM.
`N#Cc1ccc(CCN[C@H]2CC[C@H](c3nnn4cnc5[nH]ccc5c34)CC2)cc1` [391b, 4-(2-{[trans-4-(7H-pyrrolo[3,2-e][1,2,3]triazolo[1,5-c]pyrimidin-1-yl)cyclohexyl]amino}ethyl)benzonitrile]: the IC50 against JAK3 is more than 1 µM; on JAK1, 0.018 µM; against JAK2, 0.39 µM; against Tyk2, 0.58 µM.
In the case of `N#Cc1ccc(CCNC(=O)[C@H]2CC[C@H](c3nnn4cnc5[nH]ccc5c34)CC2)cc1` [compound 362, trans-N-(4-cyanophenethyl)-4-(7H-pyrrolo[3,2-e][1,2,3]triazolo[1,5-c]pyrimidin-1-yl)cyclohexanecarboxamide], the concentration for half-maximal inhibition (IC50) was more than 1 µM against JAK3, 0.0074 µM against JAK1, 0.057 µM at JAK2 and more than 1 µM on Tyk2.
For `O=C(C[C@H]1CC[C@H](c2nnn3cnc4[nH]ccc4c23)CC1)NCC(F)(F)F` [442b, 2-[trans-4-(7H-Pyrrolo[3,2-e][1,2,3]triazolo[1,5-c]pyrimidin-1-yl)cyclohexyl]-N-2,2,2-trifluoroethylacetamide], the IC50 at JAK3 turned out to be 0.1 µM; against JAK1, 0.0032 µM; on JAK2, 0.014 µM; against Tyk2, 0.88 µM.
In the case of `Fc1cc(C(F)(F)F)cc(F)c1CN1CCC(c2nnn3cnc4[nH]ccc4c23)CC1` [compound 224, 1-{1-[2,6-difluoro-4-(trifluoromethyl)benzyl]piperidin-4-yl}-7H-pyrrolo[3,2-e][1,2,3]triazolo[1,5-c]pyrimidine], the 50% inhibitory concentration (IC50) against JAK3 was determined as 0.43 µM; on JAK1, 0.002 µM; against JAK2, 0.012 µM; at Tyk2 it was 0.95 µM.
On to `CC(NC[C@H]1CC[C@H](c2nnn3cnc4[nH]ccc4c23)CC1)c1ccc(F)c(F)c1` (mixture of isomers) [compound 109], for which the IC50 against JAK3 (Table^a 154) came out at 0.16 µM; on JAK1 (Table^a 154) it was 0.0016 µM; on JAK2 (Table^a 154), 0.011 µM; against Tyk2 (Table^a 154), 0.072 µM.
On to `N#Cc1cc(CN2CCC(c3nnn4cnc5[nH]ccc5c34)CC2)ccc1C(F)(F)F` [compound 243, 5-{[4-(7H-pyrrolo[3,2-e][1,2,3]triazolo[1,5-c]pyrimidin-1-yl)piperidin-1-yl]methyl}-2-(trifluoromethyl)benzonitrile], for which the 50% inhibitory concentration (IC50) on JAK3 was more than 1 µM; on JAK1, 0.044 µM; on JAK2 it was 0.29 µM; against Tyk2 it was more than 1 µM.
For `N#CCCN(C[C@H]1CC[C@H](c2nnn3cnc4[nH]ccc4c23)CC1)c1ccccc1` [compound 300, 3-({[trans-4-(7H-pyrrolo[3,2-e][1,2,3]triazolo[1,5-c]pyrimidin-1-yl)cyclohexyl]methyl}(phenyl)amino)propanenitrile], the IC50 is 0.75 µM against JAK3, 0.025 µM on JAK1, 0.059 µM against JAK2 and more than 1 µM against Tyk2.
Consider `S=c1[nH]c(C2CCCCC2)c2c3cc[nH]c3ncn12` [compound 8], for which the IC50 against JAK3 was 0.43 µM; against JAK1, 0.02 µM; against JAK2, 0.03 µM; against Tyk2 it was 0.036 µM.
With `Fc1ccc(CCNC[C@H]2CC[C@H](c3nnn4cnc5[nH]ccc5c34)CC2)cc1` [compound 111], the IC50 against JAK3 (Table^a 154) worked out at 0.22 µM; on JAK1 (Table^a 154), 0.0019 µM; on JAK2 (Table^a 154), 0.027 µM; against Tyk2 (Table^a 154), 0.028 µM.
For `Fc1ccc(CN2CCC(c3nnn4cnc5[nH]ccc5c34)CC2)c(F)c1` [compound 164, 1-[1-(2,4-difluorobenzyl)piperidin-4-yl]-7H-pyrrolo[3,2-e][1,2,3]triazolo[1,5-c]pyrimidine], the IC50 on JAK3 (Table^a 154) came out at 0.23 µM; against JAK1 (Table^a 154), 0.0058 µM; against JAK2 (Table^a 154), 0.03 µM; on Tyk2 (Table^a 154) it was 0.29 µM.
In the case of `Clc1cc(CN2CCC(c3nnn4cnc5[nH]ccc5c34)CC2)ccn1` [compound 160], the IC50 was 0.35 µM on JAK3 (Table^a 154), 0.0053 µM on JAK1 (Table^a 154), 0.021 µM on JAK2 (Table^a 154) and 0.26 µM against Tyk2 (Table^a 154).
As for `FC(F)(F)C(F)(F)CNC[C@H]1CC[C@H](c2nnn3cnc4[nH]ccc4c23)CC1` [compound 342, N-{[trans-4-(7H-pyrrolo[3,2-e][1,2,3]triazolo[1,5-c]pyrimidin-1-yl)cyclohexyl]methyl}-2,2,3,3,3-pentafluoropropan-1-amine], the 50% inhibitory concentration (IC50) on JAK3 amounted to 0.13 µM; against JAK1 it was 0.0039 µM; at JAK2 it was 0.034 µM; at Tyk2 it was 0.35 µM.

The IC50 is the concentration at which inhibition is half-maximal. A lower IC50 goes with greater potency in that assay.
